From US20050026133A1, “Cryopreservation medium for primate embryo stem cells and cryopreservation method” (ASAHI TECHNO GLASS CORPORATION, priority 2002, published 2005)

Legend:
[1] = test system: Cynomolgus monkey ES cells; assay: Alkaline phosphatase activity (ES cell marker) of post-thaw ES cells in culture, fluorometry with 4-methylumbelliferyl phosphate; type: cell-based; conditions: for alkaline phosphatase activity of post-thaw ES cells (successful cryopreservation): 8 days of culture
Method: Cynomolgus monkey ES cells were subcultured for 33 passages and dissociated into cell suspension from three 90-mm Petri dishes, and the cell suspension was centrifuged at 1,000 rpm for 5 minutes. The supernatant was removed to obtain a cell precipitate. The cell precipitate was resuspended in 1 ml of a cryopreservation medium containing 20% (V/V) [=22% (W/V)] of DMSO, 40% (V/V) of a serum replacement containing albumin, insulin and transferrin (Knockout Serum Replacement; Invitrogen) [hereinafter referred to as serum replacement (A)] and 40% (V/V) of DMEM:Ham F12=1:1 medium [hereinafter referred to as medium (A)] supplemented with 3 g/l of glucose, 0.5 g/l of CaCl2 0.15 g/l of MgSO4. The cell suspension was transferred to a serum tube, refrigerated to −80° C. at a rate of about 1° C./min in Mr. Frosty is (Nalgen) and then stored in a liquid nitrogen container for about 6 days. The cells were thawed, plated in 60-mm Petri dishes in duplicate and cultured in the medium described in Suemori et al. (2001 Dev. Dyn. Oct; 222(2):273-9). ES cell proliferation was investigated by following the time course of the activity of alkaline phosphatase, which is a marker of ES cells. After 3, 5 and 7 days, the medium was removed from the dishes by aspiration, and the cells were washed with 1 ml of 30 mM Hepes buffer containing 0.1 mg/l of CaCl2 and 0.1 mg/l of MgSO4(7H2O) and treated with 1 ml of 0.2 mM 4-methylumbelliferyl phosphate solution in the same buffer in an incubator at 37° C. for 1 hour. 0.8 ml portions of the reaction mixture were transferred to a 24-well microplate and analyzed by fluorometry at Ex355/Em460. Fluorescence per 1 ml was calculated and plotted. As a control, the alkaline phosphatase activity of the same feeder cells as used during subcultures of ES cells was measured.

[2] = test system: Cynomolgus monkey ES cells; assay: Cell count per Petri dish of post-thaw ES cell culture after trypsinization; type: cell-based
Method: (§1) After 2, 4, 6 and 7 days, ES cell proliferation was assessed by alkaline phosphatase assay as described in Example 1. After 7 days of culture, the cells on each Petri dish was dissociated by tripsinization and counted.
as §1, with “8” for “7”, “counted. Colonies of 1 mm or larger formed on the Petri dishes for the respective concentrations were visually counted.” for “counted.”
(§2) After 2, 4, 6 and 8 days, ES cell proliferation was assessed by alkaline phosphatase assay as described in Example 1. After 8 days of culture, the cells on each Petri dish was dissociated by tripsinization and counted.
After 2, 4 and 6 days of culture, ES cell proliferation was assessed by alkaline phosphatase assay as described in Example 1. After 6 days of culture, the cells on each Petri dish was dissociated by tripsinization and counted.

[3] = test system: Cynomolgus monkey ES cells; assay: Post-thaw ES cell colony formation, proliferation to subculturable stage, staining with Vector Red alkaline phosphatase substrate; type: cell-based
Method: After completion of the culture, the cells in each Petri dish were fixed with paraformaldehyde and ethanol and stained with Vector Red alkaline phosphatase substrate (Vector Labs).
After completion of the culture, the cells in each Petri dish were fixed with paraformaldehyde and ethanol and stained with vector Red alkaline phosphatase substrate (Vector Labs). […] Similar staining of the feeder cells gave no stained colonies (FIG. 11).
as §2, with “counted. Colonies of 1 mm or larger formed on the Petri dishes for the respective concentrations were visually counted.” for “counted.”

[4] = test system: Cynomolgus monkey ES cells; assay: Differentiation potency of cryopreserved ES cells: teratoma formation after intraperitoneal injection into SCID mice; type: in vivo; conditions: Example 3; cells cryopreserved in 20% (V/V) [=22% (W/V)] DMSO, 40% serum replacement (A), 40% medium (A); 10 passages after thawing; 5×10^6 cells i.p. in SCID mice, about 6 weeks
Method: Cynomolgus monkey ES cells subcultured for 35 passages were harvested from three 90-mm Petri dishes and treated by a method similar to that employed in Example 1 to give a cell precipitate. The cell precipitate was resuspended in 1 ml of a cryopreservation medium consisting of 20% (V/V) [=22% (W/V)] of DMSO, 40% (V/V) of serum replacement (A), 40% (V/V) of medium (A). The cell suspension was transferred to a serum tube, refrigerated to −80° C. at a rate of about 1° C./min in Mr. Frosty (Nalgen) and stored in a liquid nitrogen container for 5 day. The cells were thawed and continuously subcultured in duplicate in 35-mm Petri dishes in the medium described in Suemori et al. (2001 Dev. Dyn. Oct;222(2);273-9). Differentiation potency was assessed after 10 passages. The cells were dissociated from the Petri dishes, and 5×10^6 cells were suspended in 0.5 ml of a phosphate buffer and intraperitoneally injected into SCID mice. The mice were fed for about 6 weeks, and teratomas were isolated from the abdomen.

[5] = test system: embryonic stem cells and embryonic carcinoma cells; conditions: DMSO concentration of above 1% (W/V); cited from earlier work
chicken lung cells = conditions: DMSO or glycerin concentrations from 15 to 20%; cited from earlier work

In the case of C[S+](C)[O-] [DMSO, dimethyl sulfoxide], the “alkaline phosphatase activity of post-thaw ES cells versus feeder cells” value ([1]; Example 1, cryopreservation medium with 20% (V/V) [=22% (W/V)] DMSO, 40% serum replacement (A), 40% medium (A), stored about 6 days, culture 3, 5, 7 days) is reported as “significantly higher alkaline phosphatase activity than the feeder cells”, the “alkaline phosphatase activity of post-thaw ES cells versus feeder cells” value ([1]; Example 2, 20% (V/V) [=22% (W/V)] DMSO, 40% serum replacement (A), 40% medium (A), stored 1 day, culture 2, 4, 6, 7 days) is reported as “significantly higher alkaline phosphatase activity than the feeder cells” and the “alkaline phosphatase activity of post-thaw ES cells versus feeder cells” value ([1]; Example 2 comparative, 10% (V/V) DMSO, 45% serum replacement (A), 45% medium (A), after 7 days) is reported as “slightly exceeded the feeder cells in alkaline phosphatase activity”. The “time course of alkaline phosphatase activity of post-thaw ES cells” value ([1]; Example 4, DMSO 12, 15, 20 or 30% (V/V) [13.2, 16.5, 22, 33% (W/V)], equal serum replacement (A) and medium (A), 2, 4, 6, 7 days) was “time-dependent increase in alkaline phosphatase activity”, the “rate of increase of alkaline phosphatase activity versus comparative experiment (10% (V/V) DMSO)” value ([1]; Example 6, 20% (V/V) DMSO, storage cell densities 1.0, 2.0, 4.0×10^7 cells/2 ml, stored 18 days) was “alkaline phosphatase activity increased faster at any cell densities than in the comparative experiment” and the “alkaline phosphatase activity of post-thaw ES cells” value ([1]; Example 7, 20% (V/V) DMSO with 10, 40 or 80% (V/V) serum replacement (A) or fetal bovine serum, 2, 4, 6, 7 days) was “alkaline phosphatase activity increased”. The “rate of increase of alkaline phosphatase activity versus comparative experiment (10% (V/V) DMSO)” value ([1]; Example 8, 20% (V/V) [=22% (W/V)] DMSO, 20% serum replacement (A), 60% medium (A), 2, 4, 6 days) was “increased significantly faster”, the “cell count per Petri dish in the 7 day culture versus comparative experiment (10% or 50% (V/V) DMSO)” value ([2]; Example 4, DMSO 15% (V/V) [=16.5% (W/V)] and 20% (V/V) [=22% (W/V)]) was “remarkably greater” and the “cell count per Petri dish after 8 days of culture versus comparative experiment (10% (V/V) DMSO)” value ([2]; Example 6, 20% (V/V) DMSO, storage cell densities 1.0, 2.0, 4.0×10^7 cells/2 ml) was “greater than that in the comparative experiment”. The “cryopreservation success by cell count per Petri dish after 7 days of culture” value ([2]; Example 7, 20% (V/V) DMSO with 10, 40 or 80% (V/V) serum replacement (A) or fetal bovine serum) was “Successful cryopreservation was confirmed at any supplement concentrations”, the “cell count per Petri dish after 6 days of culture, 20% (V/V) DMSO relative to 10% (V/V) DMSO” value ([2]; Example 8, 20% serum replacement (A), 2.2×10^7 cells/2 ml, stored 1 day) was 6 times and the “time after thawing until the cells could be subcultured” value ([3]; Example 1, 20% (V/V) DMSO, 40% serum replacement (A), 40% medium (A)) was 1 week. For the same compound, the “colonies stained with Vector Red alkaline phosphatase substrate” value (“colonies stained” for short) ([3]; Example 1, 20% (V/V) DMSO, after completion of the culture) was “numerous successfully stained colonies”, the “ES cell proliferation and differentiated colonies after post-thaw passage” value ([3]; Example 1, 20% (V/V) DMSO, three-fold dilution followed by 3 days of subculture) was “successful proliferation of ES cells was observed without formation of differentiated colonies” and the “ES cell proliferation and differentiated colonies after 7 days of prolonged culture” value ([3]; Example 2, 20% (V/V) DMSO) was “successful proliferation of ES cells was observed without formation of differentiated colonies”. For the same compound, the “time after thawing until the cultures were able to be subcultured” value ([3]; Example 2, 20% (V/V) DMSO) was 5 days, the “colonies stained” value ([3]; Example 2, 20% (V/V) DMSO, 7 days after thawing) was “numerous successfully stained colonies” and the “ES cell proliferation after 7 days of prolonged culture” value ([3]; Example 2 comparative, 10% (V/V) DMSO) was “proliferation was recognized to a certain degree, though far below that of the cells in the illustrative experiment”. The “reaching the subculturable stage after thawing” value ([3]; Example 2 comparative, 10% (V/V) DMSO, 5 days) was “could not reach the stage at which they were able to be subcultured after 5 days”, the “colonies stained” value ([3]; Example 2 comparative, 10% (V/V) DMSO, 7 days after thawing) was “a few successfully stained colonies were observed” and the “tissues found in teratomas (retention of pluripotency)” value [4] was “formation of nerves, muscles and cartilage”. The “time in culture at which cells begin to differentiate” value [5] was 4 days and the “viability of chicken lung cells” value (chicken lung cells) was “did not give high viabilities”.

In the case of OCC(O)CO [glycerin], the “alkaline phosphatase activity of post-thaw ES cells (successful cryopreservation)” value ([1]; Example 5, glycerin 10, 20 or 30% (V/V) [12.6, 25.2, 37.8% (W/V)], 20% serum replacement (A), balance medium (A)) is reported as “increase in alkaline phosphatase activity after 8 days of culture”, the “alkaline phosphatase activity of post-thaw ES cells (successful cryopreservation)” value ([1]; Example 5 comparative, glycerin 5% (V/V) [=6.3% (W/V)]) is reported as “all the glycerin concentrations but 5% (V/V)” and the “cell count per Petri dish in the 8 day culture” value ([2]; Example 5, glycerin 10% (V/V) [=12.6% (W/V)] and 20% (V/V) [=25.2% (W/V)]) is reported as “remarkably great”. For the same compound, the “formation of ES cell colonies (1 mm or larger, visually counted)” value ([3]; Example 5, glycerin 10% (V/V) [=12.6% (W/V)] or above, 8 day culture) was “formation of ES cell colonies was confirmed” and the “viability of chicken lung cells” value (chicken lung cells) was “did not give high viabilities”.
